How the values were obtained:
[1] = Piperlongumine microsomal protein binding (ultrafiltration); assay type: in vitro ADME; conditions: human, pooled human liver microsomes; PPL 127.70 μM; read-out: fumic (free fraction of the compound in the microsomal incubation)
Protocol: (§1) Piperlongumine-protein binding. An in vitro study with a microsomal and plasma protein was carried out using a concentration of PPL approximately corresponding to its S50 (n = 3). The plasma protein binding was evaluated to predict the in vivo clearance, using a plasma protein concentration of 42 mg/mL. The samples were incubated with pooled human liver microsomes at 37 °C as described in section above. The same V0 conditions obtained (protein concentration and incubation time) were applied in this study, but in the absence of the cofactor NADPH. Furthermore, a control sample without protein was analyzed simultaneously for comparison purposes. These mixtures were added to the centrifugal filter device (Microcon YM-30, 30,000 molecular weight cut-off; Millipore Corporation, Bedford, MA, USA) and centrifuged at 21800 x g for 30 min at 37 °C (Hitachi CF16RXII, Himac, Tokyo, Japan). The ultra-filtrate was directly assayed by high-performance liquid chromatography at the conditions previously described.

[2] = Piperlongumine plasma protein binding (ultrafiltration); assay type: in vitro ADME
Protocol: as §1

[3] = Predicted in vivo parameters (in vitro-in vivo scaling); assay type: in vitro ADME, human
Protocol: In vitro-in vivo scaling has been proposed by some authors. […] PPL microsome and plasma bindings were 23% and 93%, respectively. The predicted parameters, Intrinsic Clearance (CLint), Unbounded Intrinsic Clearance (CLuint), Predicted in vivo Clearance (CL), Hepatic Clearance (CLH) and Hepatic Extraction Ratio (E), are expressed in Table 1.
(§2) The kinetic parameters were calculated from nonlinear regression using GraphPad Prism Version 3.03 (San Diego, CA, USA). The Intrinsic Clearance (CLint) was obtained considering the Hill coefficient. The Unbounded Intrinsic Clearance (CLuint), Predicted in vivo Clearance (CL) and Hepatic Clearance (CLH) were determined according to Subramarian and Tracy[15] and Austin et al.[17]. Hepatic extraction ratio was calculated according to Kashuba et al.[21]. Dose-dependent inhibition parameters were determined employing SigmaPlot version 12.0 (Chicago, IL, USA). The Lineweaver-Burk plot was used to determine the inhibition profile. The second plot of slopes from Lineweaver-Burk plot versus PPL concentrations was utilized to calculate the Ki. The parameters kinact and KI in time-dependent inhibition were calculated employing GraphPad Prism Version 3.03.

[4] = system: recombinant human CYP (rhCYP) isoforms; experiment: P450 reaction phenotyping by rhCYP isoforms; assay type: in vitro ADME; conditions: specific inhibitors in pooled HLM and recombinant CYP450 isoforms
Protocol: The capacity of selected major human P450 isoforms to metabolize PPL was screened using human recombinant isoenzymes. Briefly, PPL (S50 concentration) was added into a 200 μL incubation mixture containing P450 isoform (50 pmol/mL for CYP3A4, CYP1A2, CYP2C9, 2B6, 2D6 and 2C19; 25 pmol/mL for CYP2C8 and […]; final concentrations), NADPH regeneration system solution A (1.3 mM NADP^+ and 3.3 mM glucose-6-phosphate), NADPH regeneration system solution B (0.4 U/mL glucose-6-phosphate dehydrogenase), potassium phosphate buffer pH 7.4 (100 mM), except for CYP2C9 where the phosphate buffer was substituted by tris buffer pH 7.5 (100 mM), maintaining for 50 min in shaking water bath. In order to enhance the sensibility one sample was pooled from 4 single reactions. PPL metabolites were analyzed by a GC-MS as described previously. The MS peak areas of PPL metabolites were recorded to determine the contributions of the P450 enzymes.
Phenotyping study at 50 min. In order to evaluate the CYP isoforms involved in M4 formation, a similar study as described in the main text was performed, except by the time of incubation of 50 min (Fig. S13).

CYP1A2 [5] = target: T1, CYP1A2 (Homo sapiens, UniProt P05177); experiment: Inhibition of CYP1A2 by piperlongumine (dose-dependent, Ki); assay type: in vitro ADME
T1 sequence (P05177 whole entry): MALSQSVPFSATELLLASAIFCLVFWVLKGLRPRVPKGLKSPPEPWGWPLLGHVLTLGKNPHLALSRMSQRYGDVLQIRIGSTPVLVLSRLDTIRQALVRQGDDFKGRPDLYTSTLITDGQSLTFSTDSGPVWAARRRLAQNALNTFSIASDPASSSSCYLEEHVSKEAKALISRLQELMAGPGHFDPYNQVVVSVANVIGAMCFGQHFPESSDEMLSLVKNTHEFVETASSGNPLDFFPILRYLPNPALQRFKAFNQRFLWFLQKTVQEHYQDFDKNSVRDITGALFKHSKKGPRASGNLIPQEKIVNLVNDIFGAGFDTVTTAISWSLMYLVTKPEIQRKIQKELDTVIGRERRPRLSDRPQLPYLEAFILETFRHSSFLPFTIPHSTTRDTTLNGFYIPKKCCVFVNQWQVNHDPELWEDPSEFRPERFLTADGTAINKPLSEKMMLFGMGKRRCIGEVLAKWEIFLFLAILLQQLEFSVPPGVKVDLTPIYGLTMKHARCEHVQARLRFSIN
Protocol: In the assay of PPL inhibition in reversible manner, human liver microsomes (0.3 mg/mL final concentration) were the last reagent added into the incubation system to initiate the reaction; after 30 min the reaction was terminated by adding 2 mL of ethyl acetate. Caffeine (64 μM) was added as internal standard and samples were shaken for 10 min at 1500 rpm and centrifuged for 5 min at 2860x g. The organic layers (1.8 mL) were evaporated to dryness under a stream of compressed air at room temperature. The residues were dissolved in 80 μL of the mobile phase and injected in HPLC.
as §2, with “The second plot of slopes from Lineweaver-Burk plot versus PPL concentrations was utilized to calculate the Ki.” left out

CYP3A4 = CYP3A4 (Homo sapiens, UniProt P08684); experiment: biochemical
Sequence of CYP3A4 (P08684 whole entry): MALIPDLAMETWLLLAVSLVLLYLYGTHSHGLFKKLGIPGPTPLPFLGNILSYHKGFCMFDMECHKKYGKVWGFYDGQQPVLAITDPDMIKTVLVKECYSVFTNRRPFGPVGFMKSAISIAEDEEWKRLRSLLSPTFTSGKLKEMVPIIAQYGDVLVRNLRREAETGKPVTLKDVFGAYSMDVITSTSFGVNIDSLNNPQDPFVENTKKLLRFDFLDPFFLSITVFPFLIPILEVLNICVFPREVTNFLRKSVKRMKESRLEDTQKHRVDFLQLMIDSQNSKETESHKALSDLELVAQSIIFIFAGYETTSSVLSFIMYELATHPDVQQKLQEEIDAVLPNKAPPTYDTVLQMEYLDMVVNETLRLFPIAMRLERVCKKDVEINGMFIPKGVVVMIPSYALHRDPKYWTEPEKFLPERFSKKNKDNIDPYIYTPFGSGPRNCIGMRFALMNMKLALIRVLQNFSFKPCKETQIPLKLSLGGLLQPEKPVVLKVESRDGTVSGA

CYP2D6 = CYP2D6 (Homo sapiens, UniProt P10635); experiment: biochemical
Sequence of CYP2D6 (P10635 whole entry): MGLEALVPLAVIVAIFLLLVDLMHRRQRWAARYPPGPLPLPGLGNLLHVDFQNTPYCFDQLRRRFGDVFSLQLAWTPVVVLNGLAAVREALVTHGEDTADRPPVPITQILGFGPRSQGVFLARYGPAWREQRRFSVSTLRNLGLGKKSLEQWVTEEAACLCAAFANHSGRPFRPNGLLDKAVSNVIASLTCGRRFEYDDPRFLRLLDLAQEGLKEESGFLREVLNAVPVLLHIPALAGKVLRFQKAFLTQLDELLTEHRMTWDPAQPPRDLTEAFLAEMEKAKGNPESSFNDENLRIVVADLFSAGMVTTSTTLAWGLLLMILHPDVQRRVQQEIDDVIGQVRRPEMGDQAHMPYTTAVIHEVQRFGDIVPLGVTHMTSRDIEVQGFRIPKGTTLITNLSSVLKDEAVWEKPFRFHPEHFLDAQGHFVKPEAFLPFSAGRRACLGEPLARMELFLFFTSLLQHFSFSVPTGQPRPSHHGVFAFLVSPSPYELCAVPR

CYP1A2 [6] = target: T1, CYP1A2; experiment: IC50 assay, phenacetin O-deethylation in HLM
CYP2C9 = CYP2C9 (Homo sapiens, UniProt P11712); experiment: IC50 assay, diclofenac 4'-hydroxylation in HLM
Sequence of CYP2C9 (P11712 whole entry): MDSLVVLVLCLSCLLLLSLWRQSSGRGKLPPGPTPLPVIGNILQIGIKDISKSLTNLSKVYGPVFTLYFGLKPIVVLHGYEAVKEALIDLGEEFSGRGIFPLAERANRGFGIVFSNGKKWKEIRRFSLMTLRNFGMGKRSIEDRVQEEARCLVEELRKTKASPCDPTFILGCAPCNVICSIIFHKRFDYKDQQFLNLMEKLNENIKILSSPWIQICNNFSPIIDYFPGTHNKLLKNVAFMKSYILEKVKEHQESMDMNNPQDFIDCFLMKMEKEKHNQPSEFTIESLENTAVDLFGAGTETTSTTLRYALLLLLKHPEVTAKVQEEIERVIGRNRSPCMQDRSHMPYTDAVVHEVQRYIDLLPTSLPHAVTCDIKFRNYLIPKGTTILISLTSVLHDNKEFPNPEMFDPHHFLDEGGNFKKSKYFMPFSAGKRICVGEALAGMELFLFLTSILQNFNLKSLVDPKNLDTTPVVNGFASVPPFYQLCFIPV

## COc1cc(/C=C/C(=O)N2CCC=CC2=O)cc(OC)c1OC [PPL, Piperlongumine]
[1]
  fraction unbound at 127.7 μM: 0.76
[2]; PPL approx. S50, plasma protein 42 mg/mL
  plasma binding: 93%
[2]; plasma protein (42 mg/mL), PPL 127.70 μM, read-out: fuplasma (free fraction of the compound in plasma)
  fraction unbound at 16 min, 127.7 μM: 0.07
[3]
  Hepatic Extraction (E): 0.09
[3]; 40 mg microsomes/g liver, 20 g liver/kg body weight
  Predicted in Vivo Clearance (CL): 19.79 mL/min/kg
[3]; corrected for fumic
  Unbounded Intrinsic Clearance (CLuint): 29.84 µL/min/mg
[3]; from HLM kinetic data considering the Hill coefficient
  Intrinsic Clearance (CLint): 22.68 µL/min/mg
[3]; liver blood flow 20 mL/min/kg
  Hepatic Clearance (CLH): 1.89 mL/min/kg
[4]
  main CYP isoenzymes involved in PPL metabolism: CYP1A2 and CYP3A4
CYP1A2 [5]
  Ki: 1.5 µM
CYP1A2 [5]; Lineweaver-Burk plot
  mode of inhibition: competitive type
CYP3A4
  IC50: > 100 µM
CYP2D6
  IC50: > 100 µM
CYP1A2 [6]
  IC50: 7.2 µM
CYP2C9
  IC50: > 100 µM
